Data as given in US5563155A, “Individual stereosiomers of 7-[3-(aminoalkyl)-1-pyrrolidinyl]-quinolones and naphthyridones as antibacterial agents” (Warner-Lambert Company, priority 1995, dated 1996).
Values after ≈ are worked out from the molar mass of the structure shown.

Legend:
Assay type in all cases: cell-based
Prot. rettgeri M 1771 = assay: in vitro antibacterial activity, microtitration dilution (MIC), Prot. rettgeri M 1771; conditions: Providencia rettgeri, M1771, read-out: minimum inhibiting concentration (MIC)
Text: (§1) The in vitro antibacterial activity, is obtained by the microtitration dilution method as described in Heifetz, et al., Antimicr. Agents & Chemother., 6, 124 (1974), which is incorporated herein by reference.
(§2) By use of the above methods, the following minimum inhibiting concentration values (MICs in μg/mL), PD50 's in mg/kg, no effect phototoxicity dose in mg/kg and the cytotoxicity IC50 in μg/mL were obtained for representative enantiomers of the invention and compounds of the prior art as shown in the table.

Pseud. aeruginosa UI-18 = assay: in vitro antibacterial activity, microtitration dilution (MIC), Pseud. aeruginosa UI-18; conditions: Pseudomonas aeruginosa, UI18, read-out: minimum inhibiting concentration (MIC)
Text: as §1, §2

Strep. faecalis MGH-2 = assay: in vitro antibacterial activity, microtitration dilution (MIC), Strep. faecalis MGH-2; conditions: Enterococcus faecalis, MGH2, read-out: minimum inhibiting concentration (MIC)
Text: as §1, §2

Staph. aureus H 228 = assay: in vitro antibacterial activity, microtitration dilution (MIC), Staph. aureus H 228; conditions: Staphylococcus aureus, H228, read-out: minimum inhibiting concentration (MIC)
Text: as §1, §2

Staph. aureus UC-76 = assay: in vitro antibacterial activity, microtitration dilution (MIC), Staph. aureus UC-76; conditions: Staphylococcus aureus, UC76, read-out: minimum inhibiting concentration (MIC)
Text: as §1, §2

Ent. cloacae MA2646 = assay: in vitro antibacterial activity, microtitration dilution (MIC), Ent. cloacae MA2646; conditions: Enterobacter cloacae, read-out: minimum inhibiting concentration (MIC)
Text: as §1, §2

Klebs. pneumoniae MGH-2 = assay: in vitro antibacterial activity, microtitration dilution (MIC), Klebs. pneumoniae MGH-2; conditions: Klebsiella pneumoniae, MGH2, read-out: minimum inhibiting concentration (MIC)
Text: as §1, §2

Strep. pheumoniae SV-1 = assay: in vitro antibacterial activity, microtitration dilution (MIC), Strep. pneumoniae SV-1; conditions: Streptococcus pneumoniae, SV1, read-out: minimum inhibiting concentration (MIC)
Text: as §1, §2

Strep. pyogenes C-203 = assay: in vitro antibacterial activity, microtitration dilution (MIC), Strep. pyogenes C-203; conditions: Streptococcus pyogenes, C203, read-out: minimum inhibiting concentration (MIC)
Text: as §1, §2

Esch. coli Vogel = assay: in vitro antibacterial activity, microtitration dilution (MIC), Esch. coli Vogel; conditions: Escherichia coli, read-out: minimum inhibiting concentration (MIC)
Text: as §1, §2

Row | SMILES | MIC (Prot. rettgeri M 1771) | MIC (Pseud. aeruginosa UI-18) | MIC (Strep. faecalis MGH-2) | MIC (Staph. aureus H 228) | MIC (Staph. aureus UC-76) | MIC (Ent. cloacae MA2646) | MIC (Klebs. pneumoniae MGH-2) | MIC (Strep. pheumoniae SV-1) | MIC (Strep. pyogenes C-203) | MIC (Esch. coli Vogel)
1 | CN[C@@H](C)[C@H]1CCN(c2nc3c(cc2F)c(=O)c(C(=O)O)cn3C2CC2)C1 [Example 24, 3S,1S-1-cyclopropyl-6-fluoro-7-[3-(1-N-methylaminoethyl)-1-pyrrolidinyl]-1,4-dihydro-4-oxo-1,8-naphthyridine-3-carboxylic acid] | 0.8 µg/mL (≈ 2.14 µM) | 3.1 µg/mL (≈ 8.28 µM) | 0.8 µg/mL (≈ 2.14 µM) | 0.8 µg/mL (≈ 2.14 µM) | 0.2 µg/mL (≈ 0.534 µM) | 0.4 µg/mL (≈ 1.07 µM) | 0.4 µg/mL (≈ 1.07 µM) | 0.4 µg/mL (≈ 1.07 µM) | 0.4 µg/mL (≈ 1.07 µM) | 0.2 µg/mL (≈ 0.534 µM)
2 | CCN[C@@H](C)[C@H]1CCN(c2nc3c(cc2F)c(=O)c(C(=O)O)cn3C2CC2)C1 [Example 80, 3S,1S-1-cyclopropyl-7-[3-[1-(ethylamino)ethyl]-1-pyrrolidinyl]-6-fluoro-1,4-dihydro-4-oxo-1,8-naphthyridine-3-carboxylic acid] | 1.6 µg/mL (≈ 4.12 µM) | 3.1 µg/mL (≈ 7.98 µM) | 0.2 µg/mL (≈ 0.515 µM) | 0.2 µg/mL (≈ 0.515 µM) | 0.1 µg/mL (≈ 0.257 µM) | 0.2 µg/mL (≈ 0.515 µM) | 0.4 µg/mL (≈ 1.03 µM) | 0.1 µg/mL (≈ 0.257 µM) | 0.4 µg/mL (≈ 1.03 µM) | 0.2 µg/mL (≈ 0.515 µM)
3 | C[C@H](N)[C@@H]1CCN(c2c(F)c(N)c3c(=O)c(C(=O)O)cn(C4CC4)c3c2F)C1 [Example 58, 3R,1S-5-amino-7-[3-(1-aminoethyl)-1-pyrrolidinyl]-1-cyclopropyl-6,8-difluoro-1,4-dihydro-4-oxo-3-quinolinecarboxylic acid] | 0.025 µg/mL (≈ 0.0637 µM) | 0.4 µg/mL (≈ 1.02 µM) | 0.003 µg/mL (≈ 0.00765 µM) | 0.003 µg/mL (≈ 0.00765 µM) | 0.003 µg/mL (≈ 0.00765 µM) | 0.013 µg/mL (≈ 0.0331 µM) | 0.013 µg/mL (≈ 0.0331 µM) | 0.003 µg/mL (≈ 0.00765 µM) | 0.003 µg/mL (≈ 0.00765 µM) | 0.013 µg/mL (≈ 0.0331 µM)
4 | CN[C@@H](C)[C@H]1CCN(c2c(F)c(N)c3c(=O)c(C(=O)O)cn(C4CC4)c3c2F)C1 [Example 35, 3S,1S-5-amino-1-cyclopropyl-6,8-difluoro-7-[3-(1-N-methylaminoethyl)-1-pyrrolidinyl]-1,4-dihydro-4-oxo-3-quinolinecarboxylic acid] | 0.8 µg/mL (≈ 1.97 µM) | 3.1 µg/mL (≈ 7.63 µM) | 0.2 µg/mL (≈ 0.492 µM) | 0.1 µg/mL (≈ 0.246 µM) | 0.05 µg/mL (≈ 0.123 µM) | 0.2 µg/mL (≈ 0.492 µM) | 0.8 µg/mL (≈ 1.97 µM) | 0.2 µg/mL (≈ 0.492 µM) | 0.2 µg/mL (≈ 0.492 µM) | 0.2 µg/mL (≈ 0.492 µM)
5 | CN[C@@H](C)[C@@H]1CCN(c2c(F)c(N)c3c(=O)c(C(=O)O)cn(C4CC4)c3c2OC)C1 [Example 56, 3R,1S-5-amino-1-cyclopropyl-6-fluoro-1,4-dihydro-8-methoxy-7-[3-(1-N-methylaminoethyl)-1-pyrrolidinyl]-4-oxo-3-quinolinecarboxylic acid] | 0.4 µg/mL (≈ 0.956 µM) | 1.6 µg/mL (≈ 3.82 µM) | 0.025 µg/mL (≈ 0.0597 µM) | 0.013 µg/mL (≈ 0.0311 µM) | 0.006 µg/mL (≈ 0.0143 µM) | 0.2 µg/mL (≈ 0.478 µM) | 0.2 µg/mL (≈ 0.478 µM) | 0.006 µg/mL (≈ 0.0143 µM) | 0.006 µg/mL (≈ 0.0143 µM) | 0.1 µg/mL (≈ 0.239 µM)
6 | CCN[C@H](C)[C@@H]1CCN(c2nc3c(cc2F)c(=O)c(C(=O)O)cn3-c2ccc(F)cc2F)C1 [Example 51, 3R,1R-7-[3-(1-N-ethylaminoethyl)-1-pyrrolidinyl]-1-(2,4-difluorophenyl)-6-fluoro-1,4-dihydro-4-oxo-1,8-naphthyridine-3-carboxylic acid] | 3.1 µg/mL (≈ 6.73 µM) | > 3.1 µg/mL | 0.4 µg/mL (≈ 0.869 µM) | 0.2 µg/mL (≈ 0.434 µM) | 0.05 µg/mL (≈ 0.109 µM) | 0.8 µg/mL (≈ 1.74 µM) | 1.6 µg/mL (≈ 3.47 µM) | 0.2 µg/mL (≈ 0.434 µM) | 0.2 µg/mL (≈ 0.434 µM) | 0.8 µg/mL (≈ 1.74 µM)
7 | COc1c(N2CC[C@@H]([C@H](C)N)C2)c(F)cc2c(=O)c(C(=O)O)cn(C3CC3)c12 [Example 44, 3R,1S-7-[3-(1-aminoethyl)-1-pyrrolidinyl]-1-cyclopropyl-6-fluoro-1,4-dihydro-8-methoxy-4-oxo-3-quinolinecarboxylic acid] | 0.05 µg/mL (≈ 0.128 µM) | 0.4 µg/mL (≈ 1.03 µM) | 0.006 µg/mL (≈ 0.0154 µM) | 0.006 µg/mL (≈ 0.0154 µM) | ≤ 0.003 µg/mL | 0.05 µg/mL (≈ 0.128 µM) | 0.05 µg/mL (≈ 0.128 µM) | ≤ 0.003 µg/mL | ≤ 0.003 µg/mL | 0.025 µg/mL (≈ 0.0642 µM)
8 | COc1c(N2CC[C@@H]([C@@H](C)N)C2)c(F)cc2c(=O)c(C(=O)O)cn(C3CC3)c12 [Example 45, 3R,1R-7-[3-(1-aminoethyl)-1-pyrrolidinyl]-1-cyclopropyl-6-fluoro-1,4-dihydro-8-methoxy-4-oxo-3-quinolinecarboxylic acid] | 0.2 µg/mL (≈ 0.514 µM) | 0.8 µg/mL (≈ 2.05 µM) | 0.025 µg/mL (≈ 0.0642 µM) | 0.25 µg/mL (≈ 0.642 µM) | ≤ 0.03 µg/mL | 0.05 µg/mL (≈ 0.128 µM) | 0.1 µg/mL (≈ 0.257 µM) | 0.013 µg/mL (≈ 0.0334 µM) | 0.013 µg/mL (≈ 0.0334 µM) | 0.05 µg/mL (≈ 0.128 µM)
